Source: patent US8298781B2, “Compositions and methods for characterizing and regulating olfactory sensation” (Duke University, priority 2007, dated 2012)

Columns and labels:
Assay type in all cases: in vivo
human subjects [1] = assay: Human olfactory psychophysics: intensity rating by OR7D4 genotype; conditions: 7-point scale, two concentrations pooled; N=100 RT/WM, N=255 RT/RT
Protocol: (§1) Human olfactory psychophysics. All human subjects gave informed consent to participate in this study and were tested in a well-ventilated room. Normal human subjects (n=412; 218 female, 194 male; median age 34, age range 19-75) were pre-screened to exclude pregnant women and those with medical conditions causing general impairment of the sense of smell. All subjects completed two replicates of the test separated by at least 4 days. Odors were presented in amber vials as previously described (see, e.g., Keller, A., et al., Nat Neurosci 7, 337-338 (2004); herein incorporated by reference in its entirety) using bar-coded symbols to ensure that subjects were blind to the identity of all odors. The intensity and valence of 66 odors at two concentrations (“high” and “low”) and two solvents was rated using a 7-point scale. Thresholds were calculated using the single staircase method with seven reversals (see, e.g., Doty, R. L., et al., Chem Senses 20, 645-656 (1995); Doty, R. L. & Laing, D. G. in Handbook of Olfaction and Gustation (ed. Doty, R. L.) pp. 203-228 (Marcel Dekker, Inc., New York, 2003); each of which are herein incorporated by reference in their entireties). Threshold tests included both steroids as binary dilutions from […] (binary dilution 6) to 1: 134,217,728 (binary dilution 27). Subjects who could not reliably distinguish a 1:64 dilution of androstenone and androstadienone from solvent were operationally defined as anosmic to these odorous steroids, although it could not be excluded that these subjects could detect higher concentrations of these steroids (see, e.g., Bremner, E. A., et al., Chem Senses 28, 423-432 (2003); herein incorporated by reference in its entirety). Odor profiling used the method established by Dravnieks, et al. (see, e.g., Dravnieks, A., et al., Science 218, 799-801 (1982); herein incorporated by reference in its entirety).
(§2) Stimuli for olfactory psychophysics. All odors were presented as one ml of an odor dilution in either propylene glycol or paraffin oil in 20 ml amber glass vials. All of these compounds were used in the intensity and valence rating portion of the smell test.
(§3) Olfactory ratings. The intensity and valence of 66 odors were rated at two different concentrations (high and low) and the intensity and valence of the two solvents (paraffin oil and propylene glycol) was rated three times. Prior to these ratings, six stimuli that represented the spectrum of intensity and valence of the stimuli used in the study were presented to allow the subjects to calibrate the usage of the scale. The subjects were unaware that the six first stimuli served that purpose. After the rating of the 66 odors at two concentrations and the rating of the solvents, 15 stimuli that were presented earlier in the experiment were repeated to test for the effect of adaptation and olfactory fatigue on the ratings. The subjects were not aware that the last 15 stimuli served this purpose. These 15 stimuli and the six first stimuli were not included in the analysis presented here. […] The 15 control stimuli and their concentrations were as follows:
(§4) In addition there was a button on the screen labeled “I can't smell anything” and a button labeled “Don't Know”. If the “Don't Know” button was pressed, no rating was recorded. If the “I can't smell anything” button was pressed, a 0 was recorded for the intensity rating and no rating was recorded for the valence rating. The other ratings were transformed according to the following scheme:
(§5) • Extremely Weak=1 • Very Weak=2 • Slightly Weak=3 • Neither Weak nor Strong=4 • Slightly Strong=5 • Very Strong=6 • Extremely Strong=7 Valence Rating • Extremely Unpleasant=1 • Very Unpleasant=2 • Slightly Unpleasant=3 • Neither Unpleasant nor Pleasant=4 • Slightly Pleasant=5 • Very Pleasant=6 • Extremely Pleasant=7
(§6) Averages for the ratings of the different genotypes were calculated. […]

human subjects [2] = assay: Human olfactory psychophysics: valence rating by OR7D4 genotype; conditions: 7-point scale, two concentrations pooled
Protocol: as §1, §2, §3, §4, §5, §6

human subjects [3] = assay: Human olfactory psychophysics: odor profiling with 146 descriptors; conditions: vanillin 1/200
Protocol: Human olfactory psychophysics. All human subjects gave informed consent to participate in this study and were tested in a well-ventilated room. Normal human subjects (n=412; 218 female, 194 male; median age 34, age range 19-75) were pre-screened to exclude pregnant women and those with medical conditions causing general impairment of the sense of smell. All subjects completed two replicates of the test separated by at least 4 days. Odors were presented in amber vials as previously described (see, e.g., Keller, A., et al., Nat Neurosci 7, 337-338 (2004); herein incorporated by reference in its entirety) using bar-coded symbols to ensure that subjects were blind to the identity of all odors. The intensity and valence of 66 odors at two concentrations (“high” and “low”) and two solvents was rated using a 7-point scale. Thresholds were calculated using the single staircase method with seven reversals (see, e.g., Doty, R. L., et al., Chem Senses 20, 645-656 (1995); Doty, R. L. & Laing, D. G. in Handbook of Olfaction and Gustation (ed. Doty, R. L.) pp. 203-228 (Marcel Dekker, Inc., New York, 2003); each of which are herein incorporated by reference in their entireties). Threshold tests included both steroids as binary dilutions from […] (binary dilution 6) to 1: 134,217,728 (binary dilution 27). […]
Assigning descriptors to odors. Subjects assessed the quality of six odors using an odor profiling method that has shown to produce stable profiles of odorants. […] Odor profiling typically took five minutes per odorant and was performed as a computer-controlled selftest in which the subject's responses were directly recorded. […] The descriptors used to describe the other four odors (vanillin, pentadecalactone, androstenone, and propylene glycol) were evaluated. […]

SMILES: CC1COCc2cc3c(cc21)C(C)(C)C(C)C3(C)C (centres unmarked) [galaxolide]
- intensity rating, OR7D4 RT/WM vs RT/RT subjects (human subjects [1]): not affected

SMILES: CCCCCCCCOC(C)=O [octyl acetate]
- valence rating, OR7D4 RT/WM vs RT/RT subjects (human subjects [2]): less pronounced—but statistically significant—difference

SMILES: O=C1CCCCCCCCCCCCCCO1 [pentadecalactone]
- intensity rating, OR7D4 RT/WM vs RT/RT subjects (human subjects [1]): not affected

SMILES: COc1cc(C=O)ccc1O [vanillin]
- valence rating, OR7D4 RT/WM vs RT/RT subjects (human subjects [2]): less pronounced—but statistically significant—difference
- use of two descriptors, OR7D4 RT/WM vs RT/RT subjects (human subjects [3]): comparable increase
